Measured values taken from US20220177932A1, “PROCESS AND COMPOSITION FOR CONTROLLING ETHANOL PRODUCTION” (priority 2020, published 2022).

How the values were obtained:
[1] = tested on: Clostridium ljungdahlii; assay: Syngas fermentation in stirred tank bioreactor, effect of vitamin feed rates on specific ethanol productivity; format: cell-based; settings: Experiment 4; vitamin B5 feed held constant below about 30 ug/g of cells produced, vitamin B1 and B7 feeds increased
Excerpt: A synthesis gas containing CO, CO2 and H2 was continuously introduced into a stirred tank bioreactor containing Clostridium ljungdahlii (Experiments 1-4) or Clostridium authoethanogenum (Experiment 5), along with a liquid medium containing trace metals and salts as described herein. Vitamins were provided using dedicated feed lines. A New Brunswick Bioflow reactor containing the fermentation medium was started with actively growing Clostridium ljungdahlii (Experiments 1-5) or with Clostridium authoethanogenum (Experiment 6). The rate of agitation of the reactor was set to 800 rpm at the start of the experiment and this agitation rate was maintained throughout the experiment. Feed gas flow to the reactor was increased based on the H2 and CO uptake of the culture. Temperature in the bioreactor was maintained at about 38° C. throughout the experiment. Samples of gas feed into the bioreactor and off-gas from the bioreactor and fermentation broth in the bioreactor were taken at intervals, for example feed gas, off-gas and fermentation broth were sampled about daily, once two hours and once four hours respectively. Above samples were analyzed for consumption or production of various gas components, broth acetic acid concentration, broth ethanol concentration and the optical density (cell density) of the culture. […]

[2] = tested on: Clostridium authoethanogenum; assay: as above; format: cell-based; settings: Experiment 5
Excerpt: A synthesis gas containing CO, CO2 and H2 was continuously introduced into a stirred tank bioreactor containing Clostridium ljungdahlii (Experiments 1-4) or Clostridium authoethanogenum (Experiment 5), along with a liquid medium containing trace metals and salts as described herein. Vitamins were provided using dedicated feed lines. A New Brunswick Bioflow reactor containing the fermentation medium was started with actively growing Clostridium ljungdahlii (Experiments 1-5) or with Clostridium authoethanogenum (Experiment 6). The rate of agitation of the reactor was set to 800 rpm at the start of the experiment and this agitation rate was maintained throughout the experiment. Feed gas flow to the reactor was increased based on the H2 and CO uptake of the culture. Temperature in the bioreactor was maintained at about 38° C. throughout the experiment. Samples of gas feed into the bioreactor and off-gas from the bioreactor and fermentation broth in the bioreactor were taken at intervals, for example feed gas, off-gas and fermentation broth were sampled about daily, once two hours and once four hours respectively. Above samples were analyzed for consumption or production of various gas components, broth acetic acid concentration, broth ethanol concentration and the optical density (cell density) of the culture. The unaroused volume of the reactor was maintained between 3000 to 3250 ml throughout the experiment. Further, the gas flow to the reactor was maintained at required gas flow rates by using a mass flow controller. The feed […] composition was 23% H2, 35% CO, 29% CO2 and 13% N2. In the following reactor runs, vitamins biotin, thiamine and pantothenate were feed to the reactor using a dedicated stream. Steady state conditions were maintained for a period of time greater than 5 times the cell retention time. Cell mass was essentially replaced 5 times before data collection phase started. After data set was collected, vitamin feed rate was adjusted, adjustment phase was repeated, and next data set was collected. Adjustment phase refers to an amount of time necessary for the culture to equilibrate to a change. In this experiment culture was allowed at least a 3-day adjustment phase. A cell recycle system (CRS) was attached to the reactor before the start of the experiment. During the experiment, medium feed rate was 3.0 to 6.0 ml/min, and through the CRS, 0-5 ml/min permeate was drawn out from the reactor. The following tables describe the vitamin feed rates and specific ethanol productivity (SEP). Experiment 5: Fermentation with Clostridium authoethanogenum with Biotin (B7) and Thiamine (B1) feeds held at lower base levels with increasing Pantothenate (B5) Feeds.

Row | SMILES | effect of increasing feed rate on specific ethanol productivity [1] | SEP (specific ethanol productivity) ([2]; feeds pantothenate 48.47, biotin 29.54, thiamine 23.10 μg/g cells produced) [g//day/g cells] | SEP (specific ethanol productivity) ([2]; feeds pantothenate 58.08, biotin 26.65, thiamine 20.84 μg/g cells produced) [g//day/g cells] | SEP (specific ethanol productivity) ([2]; feeds pantothenate 62.90, biotin 23.04, thiamine 18.01 μg/g cells produced) [g//day/g cells] | SEP (specific ethanol productivity) ([2]; feeds pantothenate 68.78, biotin 25.19, thiamine 19.70 μg/g cells produced) [g//day/g cells] | SEP (specific ethanol productivity) ([2]; feeds pantothenate 70.67, biotin 21.62, thiamine 16.91 μg/g cells produced) [g//day/g cells] | SEP (specific ethanol productivity) ([2]; feeds pantothenate 81.90, biotin 18.79, thiamine 14.69 μg/g cells produced) [g//day/g cells] | specific ethanol productivity increase ([2]; vitamin B5 feed from about 48 to about 82 ug/g of cells produced, vitamin B1 and B7 feeds under 30, further under 20 ug/g of cells produced)
1 | Cc1ncc(C[n+]2csc(CCO)c2C)c(N)n1 [vitamin B1, thiamine] | did not increase specific ethanol productivity | – | – | – | – | – | – | –
2 | O=C(O)CCCC[C@@H]1SC[C@@H]2NC(=O)N[C@@H]21 [vitamin B7, biotin] | did not increase specific ethanol productivity | – | – | – | – | – | – | –
3 | CC(C)(CO)[C@@H](O)C(=O)NCCC(=O)O [Pantothenate (B5), pantothenate] | – | 8.08 | 8.24 | 8.51 | 9.39 | 9.70 | 9.98 | about 24%
